As a reminder, the melting point is the temperature of the solid-liquid transition.

As to `Cc1cccc(-c2nc(C(=O)O)sc2-c2ccnc(C)c2)c1` [Example Compound 25-2, 5-(2-methyl-4-pyridyl)-4-(3-methylphenyl)-1,3-thiazole-2-carboxylic acid], the melting point was in the range of 135 to 136 °C. Molecule `Cc1cccc(-c2ncsc2-c2ccnc(N)c2)c1` [Example Compound 27-1, 4-[4-(3-methylphenyl)-1,3-thiazol-5-yl]-2-pyridylamine] gave a melting point of 91 to 92 °C. Regarding `Cc1nc(-c2cccc(Cl)c2)c(-c2ccnc(N)c2)s1` [Example Compound 27-2, 4-[4-(3-chlorophenyl)-2-methyl-1,3-thiazol-5-yl]-2-pyridylamine], the melting point fell in the range of 142 to 143 °C. With `CCc1nc(-c2cccc(C)c2)c(-c2ccnc(NC(=O)C3CCCC3)c2)s1` [Example Compound 29-1, N-[4-[2-ethyl-4-(3-methylphenyl)-1,3-thiazol-5-yl]-2-pyridyl]cyclopentanecarboxamide] the figure was 123 to 125 °C.

The molecule `CC(=O)Nc1cc(-c2sc(C)nc2-c2cccc(Cl)c2)ccn1` [Example Compound 30-1, N-[4-[4-(3-chlorophenyl)-2-methyl-1,3-thiazol-5-yl]-2-pyridyl]acetamide] had a melting point of 112 to 115 °C. With `CCc1nc(-c2cccc(Cl)c2)c(-c2ccnc(NC(C)=O)c2)s1` [Example Compound 30-2, N-[4-[4-(3-chlorophenyl)-2-ethyl-1,3-thiazol-5-yl]-2-pyridyl]acetamide] the figure was 149 to 150 °C.

For the molecule `CCCc1nc(-c2cccc(Cl)c2)c(-c2ccnc(NC(C)=O)c2)s1` [Example Compound 30-3, N-[4-[4-(3-chlorophenyl)-2-propyl-1,3-thiazol-5-yl]-2-pyridyl]acetamide], the melting point was in the range of 144 to 145 °C. In the case of `CCc1nc(-c2cccs2)c(-c2ccnc(NC(C)=O)c2)s1` [Example Compound 30-4, N-[4-[2-ethyl-4-(2-thienyl)-1,3-thiazol-5-yl]-2-pyridyl]acetamide] it was 154 to 155 °C; in that of `CSc1ccc(-c2nc(-c3cccc(Cl)c3)c(-c3ccnc(NC(C)=O)c3)s2)cc1` [Example Compound 30-5, N-[4-[4-(3-chlorophenyl)-2-[4-(methylthio)phenyl]-1,3-thiazol-5-yl]-2-pyridyl]acetamide], 207 to 208 °C; in that of `CCC(=O)Nc1cc(-c2sc(C)nc2-c2cccc(Cl)c2)ccn1` [Example Compound 30-7, N-[4-[4-(3-chlorophenyl)-2-methyl-1,3-thiazol-5-yl]-2-pyridyl]propionamide], 134 to 135 °C. In turn, `CCC(=O)Nc1cc(-c2sc(CC)nc2-c2cccc(Cl)c2)ccn1` [Example Compound 30-8, N-[4-[4-(3-chlorophenyl)-2-ethyl-1,3-thiazol-5-yl]-2-pyridyl]propionamide] yielded a melting point of 132 to 133 °C.

As for `CCCc1nc(-c2cccc(Cl)c2)c(-c2ccnc(NC(=O)CC)c2)s1` [Example Compound 30-9, N-[4-[4-(3-chlorophenyl)-2-propyl-1,3-thiazol-5-yl]-2-pyridyl]propionamide], the melting point was in the range of 103 to 104 °C. On to `CCC(=O)Nc1cc(-c2sc(CC)nc2-c2cccs2)ccn1` [Example Compound 30-10, N-[4-[2-ethyl-4-(2-thienyl)-1,3-thiazol-5-yl]2-pyridyl]propionamide], for which the melting point fell in the range of 187 to 188 °C. With `CCC(=O)Nc1cc(-c2sc(-c3ccc(SC)cc3)nc2-c2cccc(Cl)c2)ccn1` [Example Compound 30-11, N-[4-[4-(3-chlorophenyl)-2-[4-(methylthio)phenyl]-1,3-thiazol-5-yl]-2-pyridyl]propionamide] the figure was 187 to 188 °C. Turning to `CSc1ccc(-c2nc(-c3cccc(Cl)c3)c(-c3ccnc(NC(=O)C(C)(C)C)c3)s2)cc1` [Example Compound 30-12, N-[4-[4-(3-chlorophenyl)-2-[4-(methylthio)phenyl]-1,3-thiazol-5-yl]-2-pyridyl]pivalamide], the melting point lay in the range of 119 to 120 °C. Regarding `CCc1nc(-c2cccc(C)c2)c(-c2ccnc(NCC3CCCC3)c2)s1` [Example Compound 32, N-(cyclopentylmethyl)-4-[2-ethyl-4-(3-methylphenyl)-1,3-thiazol-5-yl]-2-pyridylamine], the melting point lay in the range of 67 to 69 °C. Turning to `Cc1cccc(-c2nc(N)sc2-c2ccnc(N3CCOCC3)c2)c1` [Example Compound 34-1, [4-(3-methylphenyl)-5-(2-morpholino-4-pyridyl)-1,3-thiazol-2-yl]amine], the melting point lay within 188 to 189 °C. `Cc1cccc(-c2nc(N)sc2-c2ccnc(NC3CCCCC3)c2)c1` [Example Compound 34-2, [5-(2-cyclohexylamino-4-pyridyl)-4-(3-methylphenyl)-1,3-thiazol-2-yl]amine] came in with a melting point of 168 to 169 °C. With `Cc1cccc(-c2nc(N)sc2-c2ccnc(NC3CCCC3)c2)c1` [Example Compound 34-3, [5-(2-cyclopentylamino-4-pyridyl)-4-(3-methylphenyl)-1,3-thiazol-2-yl]amine], the melting point lay in the range of 169 to 170 °C. In the case of `Nc1nc(-c2cccc(Cl)c2)c(-c2ccnc(N3CCCCC3)c2)s1` [Example Compound 35-1, [4-(3-chlorophenyl)-5-(2-piperidino-4-pyridyl)-1,3-thiazol-2-yl]amine] it was 206 to 208 °C; in that of `Cc1cccc(-c2nc(-c3ccc(S(C)(=O)=O)cc3)sc2N2C=CC=CC2N2CCCCC2)c1` (stereo not drawn) [Example Compound 35-2, 4-(3-methylphenyl)-2-(4-methylsulfonylphenyl)-5-(2-piperidino-1-pyridyl)-1,3-thiazole], 155 to 157 °C. With `Nc1nc(-c2ccc(F)cc2)c(-c2ccnc(NC3CCCCC3)c2)s1` [Example Compound 36-1, [5-(2-cyclohexylamino-4-pyridyl)-4-(4-fluorophenyl)-1,3-thiazol-2-yl]amine] the figure was 194 to 195 °C. With `CNc1nc(-c2cccc(C)c2)c(-c2ccnc(NC3CCCCC3)c2)s1` [Example Compound 36-2, N-methyl-[5-(2-cyclohexylamino-4-pyridyl)-4-(3-methylphenyl)-1,3-thiazol-2-yl]amine] the figure was 211 to 212 °C; with `CNc1nc(-c2cccc(C)c2)c(-c2ccnc(NC3CCCC3)c2)s1` [Example Compound 36-3, N-methyl-[5-(2-cyclopentylamino-4-pyridyl)-4-(3-methylphenyl)-1,3-thiazol-2-yl]amine], 170 to 172 °C.

With `CCc1nc(-c2cccc(C)c2)c(-c2ccnc(NC3CCCCC3)c2)s1` [Example Compound 36-4, N-cyclohexyl-4-[2-ethyl-4-(3-methylphenyl)-1,3-thiazol-5-yl]-2-pyridylamine], the melting point lay in the range of 110 to 112 °C. `Cc1cccc(-c2nc(-c3ccc(S(C)(=O)=O)cc3)sc2-c2ccnc(NC3CCCCC3)c2)c1` [Example Compound 36-5, N-cyclohexyl-4-[4-(3-methylphenyl)-2-(4-methylsulfonylphenyl)-1,3-thiazol-5-yl]-2-pyridylamine] displayed a melting point of 197 to 199 °C. Turning to `Cc1cccc(-c2nc(-c3ccc(S(C)(=O)=O)cc3)sc2-c2ccnc(NC3CCCC3)c2)c1` [Example Compound 36-7, N-cyclopentyl-4-[4-(3-methylphenyl)-2-(4-methylsulfonylphenyl)-1,3-thiazol-5-yl]-2-pyridylamine], the melting point is 154 to 156 °C. As for `Cc1cccc(-c2nc(-c3ccc(S(C)(=O)=O)cc3)sc2-c2ccnc(N3CCOCC3)c2)c1` [Example Compound 36-8, 4-(3-methylphenyl)-2-(4-methylsulfonylphenyl)-5-(2-morpholino-4-pyridyl)-1,3-thiazole], the melting point lay within 200 to 202 °C. In the case of `CCc1nc(-c2cccc(C)c2)c(-c2ccnc(N3CCOCC3)c2)s1` [Example Compound 36-9, 2-ethyl-4-(3-methylphenyl)-5-(2-morpholino-4-pyridyl)-1,3-thiazole] it was 69 to 71 °C; in that of `CCc1nc(-c2cccc(Cl)c2)c(-c2ccnc(NC3CCCCC3)c2)s1` [Example Compound 36-10, 4-[4-(3-chlorophenyl)-2-ethyl-1,3-thiazol-5-yl]-N-cyclohexyl-2-pyridylamine], 106 to 107 °C; in that of `CCc1nc(-c2cccc(Cl)c2)c(-c2ccnc(NC3CCCC3)c2)s1` [Example Compound 36-11, 4-[4-(3-chlorophenyl)-2-ethyl-1,3-thiazol-5-yl]-N-cyclopentyl-2-pyridylamine], 110 to 111 °C. `Cc1cccc(-c2nc(-c3ccc(S(C)(=O)=O)cc3)sc2-c2ccnc(N(C)C3CCCCC3)c2)c1` [Example Compound 37-2, N-cyclohexyl-N-methyl-4-[4-(3-methylphenyl)-2-(4-methylsulfonylphenyl)-1,3-thiazol-5-yl]-2-pyridylamine] came in with a melting point of 173 to 174 °C. As to `Cc1cccc(-c2nc(-c3ccc(S(C)(=O)=O)cc3)sc2-c2ccnc(NCC3CCCCC3)c2)c1` [Example Compound 37-3, N-cyclohexylmethyl-4-[4-(3-methylphenyl)-2-(4-methylsulfonylphenyl)-1,3-thiazol-5-yl]-2-pyridylamine], the melting point lay in the range of 157 to 159 °C. In the case of `Cc1cccc(-c2nc(-c3ccc(S(C)(=O)=O)cc3)sc2-c2ccnc(N3CCCC3)c2)c1` [Example Compound 37-4, 4-(3-methylphenyl)-2-(4-methylsulfonylphenyl)-5-[2-(1-pyrrolidinyl)-4-pyridyl]-1,3-thiazole] it was 199 to 201 °C.

For `Cc1cccc(-c2nc(-c3ccc(S(C)(=O)=O)cc3)sc2-c2ccnc(N3CCN(C)CC3)c2)c1` [Example Compound 37-5, 4-(3-methylphenyl)-5-[2-(4-methyl-1-piperazinyl)-4-pyridyl]-2-(4-methylsulfonylphenyl)-1,3-thiazole], the melting point was 153 to 154 °C. `CC(=O)Nc1nc(-c2cc(C)cc(C)c2)c(-c2ccnc(C)c2)s1` [Example Compound 40-1, N-[4-(3,5-dimethylphenyl)-5-(2-methyl-4-pyridyl)-1,3-thiazol-2-yl]acetamide] had a melting point of 236 to 237 °C.
